Assay results published in BindingDB's records for doi:10.1021/jm00139a009 (1981).

What follows are compounds tested against T1, Dihydrofolate reductase (Rattus norvegicus, UniProt Q920D2) (assay: Inhibitory activity against dihydrofolate reductase of rat liver).
T1 sequence (Q920D2 whole entry): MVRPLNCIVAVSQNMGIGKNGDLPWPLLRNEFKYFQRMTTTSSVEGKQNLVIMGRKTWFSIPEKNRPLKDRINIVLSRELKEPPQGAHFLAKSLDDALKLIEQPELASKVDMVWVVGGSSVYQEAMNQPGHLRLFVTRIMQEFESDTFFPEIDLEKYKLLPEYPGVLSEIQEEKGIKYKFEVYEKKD

Row | IC50 | SMILES
1 | 7.59 nM | Nc1nc(N)c2c(Cl)c(NCc3cccc(Br)c3)ccc2n1
2 | 3980 nM | Nc1nc(N)c2cc(Cl)ccc2n1
3 | 661 nM | Nc1nc(N)c2c(Cl)c(N)ccc2n1
4 | 10000 nM | Nc1nc(N)c2cc(C=O)ccc2n1
5 | 9330 nM | NCc1ccc2nc(N)nc(N)c2c1
6 | 562 nM | Nc1nc(N)c2c(Cl)cccc2n1
7 | 200 nM | Nc1nc(N)c2c(Cl)c(Cl)ccc2n1
8 | 55000 nM | Nc1nc(N)c2c([S+]([O-])c3ccc(Cl)c(Cl)c3)cccc2n1 (stereo not drawn)
9 | 2190 nM | Cc1ccc2nc(N)nc(N)c2c1
10 | 57500 nM | Nc1nc(N)c2c(S(=O)(=O)c3ccc(Cl)c(Cl)c3)cccc2n1
11 | 33.9 nM | Cc1c(NC(=O)Cc2cccc(Br)c2)ccc2nc(N)nc(N)c12
12 | 19.9 nM | Nc1nc(N)c2c(CSc3ccc(Cl)cc3)cccc2n1
13 | 100 nM | Nc1nc(N)c2c(Cl)c(Br)ccc2n1
14 | 200 nM | Nc1nc(N)c2c(Sc3ccc(Cl)c(Cl)c3)cccc2n1
15 | 813 nM | Cc1cccc2nc(N)nc(N)c12 [GNF-Pf-690]
16 | 26900 nM | Nc1ccc2nc(N)nc(N)c2c1 [QUINAZOLINE-2,4,6-TRIAMINE]

Continued, compound first:

Row | SMILES | IC50
17 | Nc1nc(N)c2c(Cl)c(NC(=O)Cc3ccc4ccccc4c3)ccc2n1 | 5.01 nM
18 | Nc1nc(N)c2c(S(=O)(=O)c3ccc4ccccc4c3)cccc2n1 | 15100 nM
19 | Nc1nc(N)c2cc(NC(=O)Cc3ccc4ccccc4c3)ccc2n1 | 5.01 nM
20 | Nc1nc(N)c2c(Sc3ccc4ccccc4c3)cccc2n1 | 7.08 nM
21 | Nc1nc(N)c2cc(NC(=O)Cc3ccc(Cl)cc3)ccc2n1 | 22.9 nM
22 | Nc1nc(N)c2c(/C=C\c3ccc4ccccc4c3)cccc2n1 | 5250 nM
23 | Cc1c(NC(=O)Cc2ccc(Cl)c(Cl)c2)ccc2nc(N)nc(N)c12 | 17 nM
24 | Nc1nc(N)c2cc(NCc3ccc(Cl)c(Cl)c3)ccc2n1 | 18.2 nM
25 | Nc1nc(N)c2cc(Sc3ccc(Cl)c(Cl)c3)ccc2n1 | 11 nM
26 | Nc1nc(N)c2cc([S+]([O-])c3ccc4ccccc4c3)ccc2n1 (stereo not drawn) | 7.08 nM
27 | Nc1nc(N)c2c(CSc3ccc4ccccc4c3)cccc2n1 | 10 nM
28 | Nc1nc(N)c2c(/C=C/c3ccc4ccccc4c3)cccc2n1 | 3020 nM
29 | Cc1c(NC(=O)Cc2ccc3ccccc3c2)ccc2nc(N)nc(N)c12 | 4.17 nM
30 | Nc1nc(N)c2c(Cl)c(NC(=O)Cc3ccc(Cl)c(Cl)c3)ccc2n1 | 24 nM
31 | O=[N+]([O-])c1ccc(/C=C/C=C/c2ccccc2)cc1 | 3.98 nM
32 | Nc1nc(N)c2c(CCc3ccc4ccccc4c3)cccc2n1 [TCMDC-141975] | 19.9 nM
33 | Nc1nc(N)c2cc(Sc3cccc(C(F)(F)F)c3)ccc2n1 [WR-159412] | 36.3 nM
